# The source made the active and inactive calls. The calls are words filed in the database; no cut-off is given here.
# Assays:
# RAW264.7 [1] = test: Cytotoxicity against mouse RAW264.7 cells assessed as cell viability at 20 to 40 uM incubated for 24 hrs by CCK8 assay; type: toxicity, cell-based; settings: raw264.7, 24 h, dose 20-40 µM
# RAW264.7 [2] = test: Anti-inflammatory activity in LPS-induced mouse RAW264.7 cells assessed as inhibition of NO production; type: functional, cell-based
# RAW264.7 [3] = test: Effect on P38 phosphorylation in LPS-induced mouse RAW264.7 cells at 5 to 40 uM pre-incubated with compound for 1 hr followed by LPS induction and measured after 10 mins by Western blot analysis; type: functional, cell-based; settings: dose 5-40 µM
# RAW264.7 [4] = test: Anti-inflammatory activity in LPS-induced mouse RAW264.7 cells assessed as reduction in COX-2 level pre-incubated with compound for 1 hr followed by LPS induction and measured after 6 hrs by Western blot analysis; type: functional, cell-based; settings: dose 5-40 µM
# RAW264.7 [5] = test: Effect on JNK phosphorylation in LPS-induced mouse RAW264.7 cells at 5 to 40 uM pre-incubated with compound for 1 hr followed by LPS induction and measured after 10 mins by Western blot analysis; type: functional, cell-based; settings: dose 5-40 µM
# RAW264.7 [6] = test: Inhibition of MAPK signalling pathway in LPS-induced mouse RAW264.7 cells assessed as downregulation of ERK1/2 phosphorylation pre-incubated with compound for 1 hr followed by LPS induction and measured after 10 mins by Western blot analysis; type: cell-based; settings: dose 5-40 µM
# RAW264.7 [7] = test: Anti-inflammatory activity in LPS-induced mouse RAW264.7 cells assessed as inhibition of NO production incubated for 24 hrs by Griess reagent based microplate reader analysis; type: functional, cell-based; settings: RAW264.7, 24 h
# RAW264.7 [8] = test: Anti-inflammatory activity in LPS-induced mouse RAW264.7 cells assessed as downregulation of TNF-alpha mRNA transcription at 10 to 40 uM pre-incubated with compound for 1 hr followed by LPS induction and measured after 6 hrs by qRT-PCR analysis; type: functional, cell-based; settings: dose 10-40 µM
# RAW264.7 [9] = test: Anti-inflammatory activity in LPS-induced mouse RAW264.7 cells assessed as downregulation of IL-6 mRNA transcription at 10 to 40 uM pre-incubated with compound for 1 hr followed by LPS induction and measured after 6 hrs by qRT-PCR analysis; type: functional, cell-based; settings: dose 10-40 µM
# RAW264.7 [10] = test: Anti-inflammatory activity in LPS-induced mouse RAW264.7 cells assessed as downregulation of iNOS mRNA transcription at 10 to 40 uM pre-incubated with compound for 1 hr followed by LPS induction and measured after 6 hrs by qRT-PCR analysis; type: functional, cell-based; settings: dose 10-40 µM
# RAW264.7 [11] = test: Anti-inflammatory activity in LPS-induced mouse RAW264.7 cells assessed as reduction in iNOS level pre-incubated with compound for 1 hr followed by LPS induction and measured after 6 hrs by Western blot analysis; type: functional, cell-based; settings: dose 5-40 µM
Compound,Activity (RAW264.7 [1]),other results
C[C@H]1CC(=O)O[C@@H]1[C@](C)(O)/C=C/C1=CC2=C(Cl)C(=O)[C@](C)(O)[C@H](O)[C@@H]2CO1,Non-toxic,
C[C@H]1CC(=O)O[C@@H]1[C@@](C)(O)/C=C/C1=CC2=CC(=O)[C@](C)(O)[C@@H](O)C2=CO1,Non-toxic,
C[C@H]1CCO[C@@H]1[C@](C)(O)/C=C/C1=CC2=CC(=O)[C@](C)(O)[C@@H](O)[C@]2(O)CO1,Non-toxic,
C[C@H]1CC(=O)O[C@@H]1[C@@](C)(O)/C=C/C1=CC2=CC(=O)[C@](C)(O)[C@@H](O)[C@@H]2CO1,Non-toxic,
C[C@H]1CCO[C@@H]1[C@@](C)(O)/C=C/C1=CC2=CC(=O)[C@](C)(O)[C@@H](O)[C@@H]2CO1,Non-toxic,
O=c1c(O)c(-c2ccc(O)c(O)c2)oc2cc(O)cc(O)c12 [QUERCETIN],,IC50 (RAW264.7 [2]): 15.3 µM
C[C@H]1CCO[C@@H]1[C@](C)(O)/C=C/C1=CC2=CC(=O)[C@](C)(O)[C@@H](O)[C@@H]2CO1,Non-toxic,
C[C@H]1CC(=O)O[C@@H]1[C@](C)(O)/C=C/C1=CC2=CC(=O)[C@](C)(O)[C@@H](O)[C@H]2CO1,Non-toxic,
C[C@H]1CC(=O)O[C@@H]1[C@@](C)(O)/C=C/C1=CC2=C(Cl)C(=O)[C@](C)(O)[C@H](O)[C@@H]2CO1,Non-toxic,
C[C@H]1CC(=O)O[C@@H]1[C@@](C)(O)/C=C/C1=CC2=CC(=O)[C@](C)(O)[C@@H](O)[C@H]2CO1,Non-toxic,
C[C@H]1CC(=O)O[C@@H]1[C@](C)(O)/C=C/C1=CC2=CC(=O)[C@](C)(O)[C@@H](O)C2=CO1,Non-toxic,
C[C@H]1CCO[C@@H]1[C@@](C)(O)/C=C/C1=CC2=CC(=O)[C@](C)(O)[C@@H](O)[C@]2(O)CO1,Non-toxic,
C[C@H]1CC(=O)O[C@@H]1[C@](C)(O)/C=C/C1=CC2=CC(=O)[C@](C)(O)[C@@H](O)[C@@H]2CO1,Non-toxic,Activity (RAW264.7 [3]): inactive; Activity (RAW264.7 [4]): Dose-dependent-effect; Activity (RAW264.7 [5]): inactive; inhibition (RAW264.7 [6]): Dose-dependent-effect; IC50 (RAW264.7 [7]): 16.7 µM; Activity (RAW264.7 [8]): Active; Activity (RAW264.7 [9]): Active; Activity (RAW264.7 [10]): Active; Activity (RAW264.7 [11]): Dose-dependent-effect

# — ChEMBL document CHEMBL6177966, “Sclerotiorin-Type Azaphilones Isolated from a Marine-Derived Fungus Microsphaeropsis arundinis P1B” (J Nat Prod, 2025)
